Values quoted from earlier work in patent US6461590B2, “Stabilized gas-supersaturated suspensions and methods for their delivery” (Wayne State University, priority 1996, dated 2002).

oxygen solubility: 0.008 cc O2/g/atm.
Compound: OCC(O)CO [Glycerin]
